Source: patent US20220296659A1, “PHARMACEUTICAL COMPOSITION FOR TREATMENT OF TUMOR OR CANCER, AND APPLICATION THEREOF” (FANTASIA BIOPHARMA (ZHEJIANG) CO. LTD, priority 2019, published 2022)

How the values were obtained:
lung cancer cells = format: in vivo, mice; settings: after completion of the experiment

With `O=C(O)c1cc(O)c2c(c1)C(=O)c1cccc(O)c1C2=O` [rhein] the “overall inhibition ratio (lung metastasis)” value (lung cancer cells) was 15.8%, the “toxic damage to the tumor-bearing mice” value (different doses, under the experimental conditions) was “did not cause toxic damage” and the “influence on the body temperature of tumor-bearing mice” value (mouse, in vivo) was “some fluctuations”.
